Marks after values point to notes of the source that are not given here.
Key:
[1] = tested on: human hepatocellular carcinoma cell line (HepG2); test: Cell viability assay (neutral red), HepG2; format: cell-based
Experimental: (§1) The human lung adenocarcinoma cell line (SK-LU-1), human colon carcinoma cell line (HCT116), human hepatocellular carcinoma cell line (HepG2) and noncancerous African green monkey kidney epithelial cell line (Vero) were cultured in Dulbecco’s modified Eagle’s medium (DMEM) supplemented with 10% fetal bovine serum, 100 IU/mL penicillin and […] streptomycin. Cells were incubated at 37 °C with 95% air and 5% CO2 until they reached approximately 80% confluence before use.
(§2) Cell viability assay was assessed by neutral red (NR). Briefly, cells at a density of 3 × 10^4 cells/well were seeded in 96-wells plate and incubated for 24 h. The sample at concentration, ranging from 10 to 500 µM, were added and incubated for 24 h. After incubation time, cells were washed with PBS. NR reagent (50 µg/mL) was added to each well and incubated for another 2 h. After that, cells were washed with PBS and lyzed with 0.33% HCl in isopropanol. Cisplatin was used as a positive control. The absorbance of NR was detected using microplate reader (Tecan, Lyon, France) at 520 nm. The percentage of cell viability was calculated vis-à-vis the untreated cells and cytotoxicity was expressed as the inhibition concentration at 50% (IC50). The final DMSO concentration was not exceed 0.1%v/v to lessen the cytotoxicity (<10%).

HepG2 cells = test: Mode of cell death by Annexin V-FITC/PI staining, flow cytometry; format: cell-based, human
From the text: In this study, double staining of cells by Annexin V-FITC/propidium iodide (PI) was used to differentiate apoptosis from necrosis. The stages of apoptosis can be distinguished from necrotic cell death by flow cytometry using Annexin V-FITC/PI double staining of HepG2 cells. During the early stages of apoptosis, the phosphatidylserine comprising the cell membrane will externalize to be exposed to the surface of apoptotic cells and bind with Annexin V-FITC, showing a cell dot plot in Quadrant 4. The cell dot plot is positively stained with Annexin V-FITC but negatively stained with PI (+/−). When cells are damaged or undergo a late state of apoptosis, cells will lose their membrane integrity, including nuclear membrane integrity, so that PI can pass through the nuclear membrane, showing a cell dot plot in Quadrant 2. […] During cell undergo necrotic cell death, cells are stained and appear in Quadrant 1 (−/+). Normal cells are not stained and appear in Quadrant 3 (−/−). The total apoptotic cell death percentage was counted from the percentage of cells undergoing an early state and late state of apoptosis gathering from Quadrants 4 and 2, while the necrotic cell death percentage was counted from Quadrant 1, as shown in Figure 2.
The Annexin V-FITC and PI apoptosis assay kit (BioLegend, San Diego, CA, USA) was used to determine mode of cell death as per previous report. The HepG2 cells (8 × 10^5 cell/mL) were seeded in a 24-well plate and incubated for 24 h. The compounds at a concentration of 1 x IC50 and 2 x IC50 were added and incubated for 12 and 24 h. After that, cells were washed with PBS and cold BioLegend’s cell staining buffer followed by staining with Annexin V-FITC and PI and cell were incubated in the dark for 15 min. The cells were analyzed by flow cytometry (BD FACSCanto II, BD Biosciences, San Jose, CA, USA) and the percentage of cells in different populations were calculated with FACSDiva software.

[2] = tested on: human lung adenocarcinoma cell line (SK-LU-1); test: Cell viability assay (neutral red), SK-LU-1; format: cell-based
Experimental: as §1
as §2, with “The sample at concentration, ranging from 10 to 500 µM, were added and incubated for 24 h.” left out

[3] = tested on: noncancerous African green monkey kidney epithelial cell line (Vero); test: Cell viability assay (neutral red), Vero; format: cell-based; design: key to IC50 Vero: inactive: Inactive means cell viability percentage was >50% at the maximum concentration used (>100 µM for the compound or >100 µg/mL for the extract); conditions: 24 h, inactive = viability >50% at >100 µM
Experimental: as §1, §2

[4] = Ferric reducing antioxidant power (FRAP) assay; format: biochemical; conditions: 100 µM compound
Experimental: FRAP assay was performed following the pervious study with slight modification. FRAP reagent was prepared by mixing 300 mM acetate buffer (pH 3.6), 20 mM ferric chloride solution and 10 mM TPTZ solution in the ratio of 10:1:1 and incubated at 37 °C for 30 min. Then, 150 µL of FRAP reagent was added with 50 µL of the sample (100 µM of isolated compounds or 100 µg/mL of the CH2Cl2 crude extract) in each well of the 96-wells plate. The absorbance was measured at 595 nm using microplate reader (Tecan, Lyon, France). Trolox was used as a positive control. The FRAP value was calculated from the linear equation between the absorbance and ferrous sulfate standard curves (y = 0.0548x + 0.0213, R^2 = 0.9989) and expressed as µM of ferrous sulfate equivalents.

[5] = tested on: human colon carcinoma cell line (HCT116); test: Cell viability assay (neutral red), HCT116; format: cell-based
Experimental: as §1
as §2, with “The sample at concentration, ranging from 10 to 500 µM, were added and incubated for 24 h.” left out

[6] = DPPH radical scavenging assay; format: biochemical
Experimental: The 2,2–diphenyl–1–picrylhydrazyl (DPPH) radical scavenging assay was conducted as per the previous method. Briefly, the stock solutions of 10 mM DPPH was prepared in methanol. The DPPH was mixed with samples (100 µL each) at various concentrations (1−500 µM) in 96 wells plate and incubated for 30 min in a dark condition. The absorbance of DPPH radical was measured at 517 nm using a microplate reader (Tecan, Lyon, France). Trolox was used as a positive control. The half maximum inhibitory concentration (IC50 value) was calculated from the plot of percentage of DDPH radical inhibition versus concentration of samples using the following formula: % DPPH radical inhibition = [(Ab − As)/Ab] × 100,(1) where Ab = absorbance of the reagent blank, and As = absorbance of the sample. Each experiment was done in five replications and results are expressed as average values.

[7] = cancer cells over noncancerous Vero cells
[8] = 30 min in the dark, absorbance 517 nm

Question: Which IC50 ([1]; Homo sapiens, HepG2, 24 h, neutral red) does the source give for `COc1c2c(cc3oc(=O)ccc13)OC(C)(C)C=C2` [Xanthoxyletin (4), xanthoxyletin] here?
Answer: 78.2 ± 2.2 µM

Question: What about the “Selectivity Index HepG2” value [1, 7] of the same compound?
Answer: (1.3)

Question: What about the “necrotic cell death percentage (Q1, Annexin V-FITC/PI −/+)” value (“necrotic cell death percentage” below) (HepG2 cells; HepG2, 1 × IC50, 12 h) of the same compound?
Answer: 2.5 ± 0.7%

Question: What about the “apoptotic cell death percentage (total, Quadrants 4 and 2)” value (“apoptotic cell death percentage” for short) (HepG2 cells; HepG2, 1 × IC50, 24 h) of the same compound?
Answer: 49.7 ± 1.1%

Question: What about the “necrotic cell death percentage” value (HepG2 cells; HepG2, 1 × IC50, 24 h) of the same compound?
Answer: 1.6 ± 0.9%

Question: What about the “apoptotic cell death percentage” value (HepG2 cells; HepG2, 2 × IC50, 12 h) of the same compound?
Answer: 49.6 ± 1.2%

Question: And the “necrotic cell death percentage” value (HepG2 cells; HepG2, 2 × IC50, 12 h)?
Answer: 2.9 ± 1.2%

Question: And the “apoptotic cell death percentage” value (HepG2 cells; HepG2, 2 × IC50, 24 h)?
Answer: 64.2 ± 3.2%

Question: What about the “necrotic cell death percentage” value (HepG2 cells; HepG2, 2 × IC50, 24 h) of the same compound?
Answer: 2.7 ± 1.1%

Question: And the IC50 ([2]; Homo sapiens, SK-LU-1, 24 h, neutral red, inactive = viability >50% at >100 µM)?
Answer: 94.4 ± 2.2 µM

Question: And the “Selectivity Index SK-LU-1” value [2, 7]?
Answer: (1.1)

Question: And the “IC50 Vero” value [3]?
Answer: inactive^cB

Question: And the “FRAP Value” [4]?
Answer: 5.2 ± 0.3^f µM FeSO4 Equivalents

Question: What about the “FRAP Value” ([4]; listed as xanthoxyletin) of the same compound?
Answer: 5.2 µM FeSO4 Equivalents

Question: And the IC50 ([5]; Homo sapiens, HCT-116, 24 h, neutral red, inactive = viability >50% at >100 µM)?
Answer: 79.8 ± 2.8 µM

Question: And the “Selectivity Index HCT116” value [5, 7]?
Answer: (1.3)

Question: What about the “DPPH Assay IC50” value [6, 8] of the same compound?
Answer: 63.8 ± 0.8^d µg/mL

Question: What about the IC50 [6, 8] of the same compound?
Answer: 247 ± 3 µM

Question: What about the “DPPH radical scavenging activity classification” value ([6]; classified from IC50 in µg/mL) of the same compound?
Answer: low radical scavenger
